Experiment: Analytical evaluation of the BPO release out of the silica shell (time for yellow color appearance, KI/sodium thiosulfate)
Assay type: physicochemical
Settings: free (uncoated) BPO, 0 coatings, no aging
Method: The release profile of BPO out of the silica shell was done in a water/Acetonitrile solution, which is capable of dissolving BPO. The method is based on the strong oxidation properties of BPO. BPO reacts with potassium iodine (KI) ions to form I2, which gives a color reaction. I2 is than reduces back to I^− using sodium thiosulfate (STS) to eliminate the color. Each 12.11 mg of oxidizing BPO was reduced by 1 ml of 0.1M STS.
Solution A is composed of deionized water, acetone, 0.1M STS solution and KI.
The following table includes the ratios between the components in order to distinguish a certain % of released BPO.
Suspension B, preparation of BPO: weigh 200 mg of BPO as 100% (1 g as 20% suspension) into 5 ml measuring bottle and fill with deionized water up to 5 ml.
Procedure: Into 50 ml glass beaker add 40 ml of solution A and the 5 ml of suspension B and measure the time for yellow color appearance.

O=C(OOC(=O)c1ccccc1)c1ccccc1 [Free BPO, benzoyl peroxide]
time for 30 % of BPO released: 0.5 min | time for 90 % of BPO released: 1 min

— patent US12350382B2, “Method for preparing particles comprising metal oxide coating and particles with metal oxide coating” (priority 2007, dated 2025)
